Results as given in patent US5968952A, “Farnesyl transferase inhibiting 2-quinolone derivatives” (Janssen Pharmaceutica, N.V., priority 1995, dated 1999).
pIC50: −log10 of the molar value.

Biological target: T1, Human farnesyl protein transferase (Homo sapiens, UniProt P49354+P49356)
T1 construct: were used as a source of human enzyme; endogenous in cells; host or cells: Kirsten virus transformed human osteosarcoma (KHOS) cells (ATCC), grown as monolayers or as solid tumors in nude mice; ammonium sulfate fraction and Q Sepharose pool
Assay: In Vitro Assay for Inhibition of Farnesyl Protein Transferase ([3H] Scintillation Proximity Assay)
Assay type: biochemical
Conditions: Table 7; human enzyme from KHOS cells; biotinylated lamin B peptide substrate; 60 min, 37° C.; read-out: IC50 (concentration of test compound producing 50% inhibition of enzyme activity)
Protocol: In Vitro Assay for Inhibition of Farnesyl Protein Transferase Human farnesyl protein transferase was prepared essentially as described ([…] al., Methods: A Companion to Methods in Enzymology vol 1, 241-245, 1990). Kirsten virus transformed human osteosarcoma (KHOS) cells (American Type Culture Collection, Rockvill, Md., USA) grown as solid tumors in nude mice or grown as monolayer cell cultures were used as a source of human enzyme. Briefly, cells or tumors were homogenized in buffer containing 50 mM Tris, 1 mM EDTA, 1 mM EGTA and 0.2 mM phenylmethylsulfonylfluoride (pH 7.5). The homogenates were centrifuged 28,000× g for 60 min and the supernatants collected. A 30-50% ammonium sulfate […] prepared, and the resulting precipitate was resuspended in a small (10 to 20 ml) volume of dialysis buffer containing 20 mM Tris, 1 mM dithiothreitol and 20 μM ZnCl2. The ammonium sulfate fraction was dialyzed overnight against two changes of the same buffer. The dialyzed material was applied to a 10×1 cm Q Fast Flow Sepharose (Pharmacia LKB Biotechnology Inc., Piscataway, N.J., USA) which had been preequilibrated with 100 ml of dialysis buffer supplemented with 0.05M NaCl. The column was washed with an additional 50 ml of dialysis buffer plus 0.05M NaCl followed by a gradient from 0.05M to 0.25M NaCl prepared in dialysis buffer. The enzyme activity was eluted with a linear gradient of 0.25 to 1.0M NaCl prepared in the dialysis buffer. Fractions containing 4 to 5 ml volumes of column eluate were collected and analyzed for farnesyl protein transferase activity. Fractions with enzyme activity were pooled and supplemented with 100 μM ZnCl2. Enzyme samples were stored frozen at -70° C. The activity of farnesyl protein transferase was measured using the Farnesyl Transferase [^3 H] Scintillation Proximity Assay (Amersham International plc., England) under the conditions specified by the manufacturer. […] The reaction mixture was warmed to 37° C. The enzyme reaction was started by adding 20 μl of diluted human farnesyl protein transferase. […] Reactions were terminated by the addition of STOP/scintillation proximity bead reagent (Amersham). The reaction product [^3 H]-farnesyl-(Cys)-biotin lamin B peptide was captured on the streptavidin linked scintillation proximity bead. The amount of [^3 H]-farnesyl-(Cys)-biotin lamin B peptide synthesized in the presence or absence of test compounds was quantified as cpm by counting on a Wallac Model 1480 Microbeta Liquid Scintillation Counter. The cpm of product was considered to be farnesyl protein transferase activity. The protein farnesyl transferase activity observed in the presence of test compound was normalized to farnesyl transferase activity in the presence of 10% DMSO and expressed as per cent inhibition. […] W. Johnson Pharmaceutical Research Institue (Spring House, Pa., USA) on a VAX computer.

| Structure (SMILES) | pIC50 |
| --- | --- |
| O=c1cc(-c2ccccc2)c2cc(C(c3ccccc3)n3ccnc3)ccc2[nH]1 (racemic) [Compound 1, (±)-6-[(1H-imidazol-1-yl)phenylmethyl]-4-phenyl-2(1H)-quinolinone] | 6.03 |
| O=C1CC(c2ccccc2)c2cc(C(c3ccc(Cl)cc3)n3ccnc3)ccc2N1 (racemic) [Compound 57, (±)-6-[(4-chlorophenyl)-1H-imidazol-1-ylmethyl]-3,4-dihydro-4-phenyl-2(1H)-quinolinone] | 5.92 |
| Cn1c(=O)cc(-c2ccccc2)c2cc(C(CO)(c3ccc(Cl)cc3)n3ccnc3)ccc21 (racemic) [Compound 59, (±)-6-[1-(4-chlorophenyl)-2-hydroxy-1-(1H-imidazol-1-yl)ethyl]-1-methyl-4-phenyl-2(1H)-quinolinone monohydrate] | 7.89 |
| Cn1c(=O)cc(-c2cccc(Cl)c2)c2cc(C(C)(c3ccc(Cl)cc3)n3ccnc3)ccc21 (racemic) [Compound 62, (±)-4-(3-chlorophenyl)-6-[1-(4-chlorophenyl)-1-(1H-imidazol-1-yl)ethyl]-1-methyl-2(1H)-quinolinone] | 7.66 |
| O=c1cc(-c2ccccc2)c2cc(C(c3cccc(Cl)c3)n3ccnc3)ccc2[nH]1 (stereo not shown) [Compound 3] | 5.85 |
| O=c1cc(-c2ccc(Cl)cc2)c2cc(C(c3ccc(Cl)cc3)n3ccnc3)ccc2[nH]1 (stereo not shown) [Compound 11] | 6.49 |
| O=c1cc(-c2ccccc2Cl)c2cc(C(c3ccc(Cl)cc3)n3ccnc3)ccc2[nH]1 (stereo not shown) [Compound 12] | 5.49 |
| O=c1cc(-c2cccc(Cl)c2)c2cc(C(c3ccc(Cl)cc3)n3ccnc3)ccc2[nH]1 (stereo not shown) [Compound 13, 4-(3-chlorophenyl)-6-[(4-chlorophenyl)-1H-imidazol-1-ylmethyl]-2(1H)-quinolinone] | 7.47 |
| O=c1cc(-c2cccc(C(F)(F)F)c2)c2cc(C(c3ccc(Cl)cc3)n3ccnc3)ccc2[nH]1 (stereo not shown) [Compound 20] | 6.62 |
| O=c1cc(-c2cccc(F)c2)c2cc(C(c3ccc(Cl)cc3)n3ccnc3)ccc2[nH]1 (stereo not shown) [Compound 21] | 6.82 |
| COc1cccc(-c2cc(=O)[nH]c3ccc(C(c4ccc(Cl)cc4)n4ccnc4)cc23)c1 (stereo not shown) [Compound 24] | 7.49 |
| O=c1cc(-c2ccc(Cl)c(Cl)c2)c2cc(C(c3ccc(Cl)cc3)n3ccnc3)ccc2[nH]1 (stereo not shown) [Compound 26] | 6.64 |
| Cc1ccc(-c2cc(=O)[nH]c3ccc(C(c4ccc(Cl)cc4)n4ccnc4)cc23)cc1 (stereo not shown) [Compound 27] | 6.71 |
| O=c1cc(-c2cccc(Br)c2)c2cc(C(c3ccc(Cl)cc3)n3ccnc3)ccc2[nH]1 (stereo not shown) [Compound 30] | 7.68 |
| O=c1cc(-c2ccccc2)c2cc(C(c3ccc(Cl)cc3Cl)n3ccnc3)ccc2[nH]1 (stereo not shown) [Compound 31] | 6.32 |
| O=c1cc(-c2ccccc2)c2cc(C(c3ccccc3Cl)n3ccnc3)ccc2[nH]1 (stereo not shown) [Compound 32] | 6.28 |
| O=c1cc(-c2ccccc2)c2cc(C(c3ccc(Cl)c(Cl)c3)n3ccnc3)ccc2[nH]1 (stereo not shown) [Compound 34] | 6.22 |
| O=c1cc(-c2cc(Cl)cc(Cl)c2)c2cc(C(c3ccc(Cl)cc3)n3ccnc3)ccc2[nH]1 (stereo not shown) [Compound 37] | 7.02 |
| O=c1cc(-c2ccccc2)c2cc(C(c3ccc(Cl)cc3)n3cnc(-c4ccccc4)c3)ccc2[nH]1 (stereo not shown) [Compound 47] | 6.98 |
| Cc1cncn1C(c1ccc(Cl)cc1)c1ccc2[nH]c(=O)cc(-c3ccccc3)c2c1 (stereo not shown) [Compound 49] | 6.52 |
| Cc1cncn1C(c1ccc(Cl)cc1)c1ccc2[nH]c(=O)cc(-c3cccc(Cl)c3)c2c1 (stereo not shown) [Compound 53] | 7.49 |
| CC(c1ccc(Cl)cc1)(c1ccc2[nH]c(=O)cc(-c3ccccc3)c2c1)n1ccnc1 (stereo not shown) [Compound 58] | 6.57 |
| CCCC(c1ccc(Cl)cc1)(c1ccc2c(c1)c(-c1cccc(Cl)c1)cc(=O)n2C)n1ccnc1 (stereo not shown) [Compound 65] | 7.29 |

Other lines, results leading:

| pIC50 | Structure (SMILES) |
| --- | --- |
| 7.15 | Cn1c(=O)cc(-c2ccccc2)c2cc(C(c3ccc(Cl)cc3)n3ccnc3)ccc21 (racemic) [Compound 8, (±)-6-[(4-chlorophenyl)-1H-imidazol-1-yl-methyl]-1-methyl-4-phenyl-2(1H)-quinolinone] |
| 7.33 | COC(=O)C(CC(C)C)NC(=O)Cn1c(=O)cc(-c2ccccc2)c2cc(C(c3ccc(Cl)cc3)n3ccnc3)ccc21 (racemic) [Compound 39] |
| 6.96 | Oc1cc(-c2ccccc2)c2cc(C(c3ccc(Cl)cc3)n3ccnc3)ccc2n1 (single isomer, unassigned; (-)) [Compound 7, (-)-(B)-6-[(4-chlorophenyl)-1H-imidazol-1-ylmethyl]-4-phenyl-2(1H)-quinolinone] |
| 6.74 | O=c1cc(-c2ccccc2)c2cc(C(c3ccc(Cl)cc3)n3ccnc3)ccc2[nH]1 (stereo not shown) [Compound 2] |
| 6.50 | O=c1cc(-c2ccccc2)c2cc(C(c3ccc(F)cc3)n3ccnc3)ccc2[nH]1 (stereo not shown) [Compound 4] |
| 6.66 | O=c1cc(-c2ccccc2)c2cc(C(c3ccc(Cl)cc3)n3ccnc3)ccc2n1Cc1ccccc1 (stereo not shown) [Compound 10] |
| 6.15 | CCCn1c(=O)cc(-c2ccccc2)c2cc(C(c3ccc(Cl)cc3)n3ccnc3)ccc21 (stereo not shown) [Compound 14] |
| 7.80 | Cn1c(=O)cc(-c2cccc(Cl)c2)c2cc(C(c3ccc(Cl)cc3)n3ccnc3)ccc21 (stereo not shown) [Compound 15, 4-(3-chlorophenyl)-6-[(4-chlorophenyl)-1H-imidazol-1-ylmethyl]-1-methyl-2(1H)-quinolinone] |
| 6.64 | CCOC(=O)Cn1c(=O)cc(-c2ccccc2)c2cc(C(c3ccc(Cl)cc3)n3ccnc3)ccc21 (stereo not shown) [Compound 17] |
| 7.40 | Cc1cccc(-c2cc(=O)[nH]c3ccc(C(c4ccc(Cl)cc4)n4ccnc4)cc23)c1 (stereo not shown) [Compound 18] |
| 6.58 | Cc1ccc(C(c2ccc3[nH]c(=O)cc(-c4ccccc4)c3c2)n2ccnc2)cc1 (stereo not shown) [Compound 25] |
| 5.66 | Cc1ccccc1-c1cc(=O)[nH]c2ccc(C(c3ccc(Cl)cc3)n3ccnc3)cc12 (stereo not shown) [Compound 28] |
| 5.62 | COc1ccc(CCn2c(=O)cc(-c3ccccc3)c3cc(C(c4ccc(Cl)cc4)n4ccnc4)ccc32)cc1 (stereo not shown) [Compound 29] |
| 6.07 | COc1ccc(C(c2ccc3[nH]c(=O)cc(-c4ccccc4)c3c2)n2ccnc2)cc1 (stereo not shown) [Compound 33] |
